# Measured values reported in ChEMBL document CHEMBL4507276 (2021).
# Columns and labels:
# [1] = biological target: Angiotensin-converting enzyme (Homo sapiens) (UniProt P12821); assay: ACE(HU) Cerep selectivity data (BI); details: Compound concentration 20.0 uM
# [2] = biological target: Gastrin/cholecystokinin type B receptor (Homo sapiens) (UniProt P32239); assay: CCKB/H Cerep selectivity data (BI); details: Compound concentration 20.0 uM
# [3] = biological target: cGMP-dependent 3',5'-cyclic phosphodiesterase (Homo sapiens) (UniProt O00408); assay: PDE2A1 Cerep selectivity data (BI); details: Compound concentration 20.0 uM
# [4] = biological target: Urotensin-2 receptor (Homo sapiens) (UniProt Q9UKP6); assay: UT1/H AG Cerep selectivity data (BI); details: filed as agonist, Compound concentration 20.0 uM
# Sequence of Urotensin-2 receptor (Homo sapiens) (Q9UKP6 whole entry): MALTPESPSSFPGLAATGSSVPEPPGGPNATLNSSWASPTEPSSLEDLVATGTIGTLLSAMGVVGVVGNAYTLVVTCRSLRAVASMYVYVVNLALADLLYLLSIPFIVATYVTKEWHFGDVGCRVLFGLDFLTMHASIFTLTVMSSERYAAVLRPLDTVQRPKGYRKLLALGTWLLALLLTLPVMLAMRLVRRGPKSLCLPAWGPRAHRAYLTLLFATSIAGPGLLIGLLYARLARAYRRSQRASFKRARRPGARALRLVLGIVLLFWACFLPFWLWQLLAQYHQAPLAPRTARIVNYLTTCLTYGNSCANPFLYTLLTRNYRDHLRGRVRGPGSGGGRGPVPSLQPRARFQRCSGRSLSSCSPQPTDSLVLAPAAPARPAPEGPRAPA
# [5] = biological target: L-type Ca2+ channel (DHP site), Cav1.2 alpha-1C (Rattus norvegicus, UniProt P22002); assay: CA+/DHPSI/RA Eurofins-Panlabs selectivity data (BI); details: compound concentration 10 uM, read-out: % Ctrl
# [6] = biological target: Serine/threonine-protein kinase B-raf (Homo sapiens) (UniProt P15056); assay: BRAF Invitrogen selectivity data (BI); details: Compound concentration 3.0 uM
# Sequence of Serine/threonine-protein kinase B-raf (Homo sapiens) (P15056 whole entry): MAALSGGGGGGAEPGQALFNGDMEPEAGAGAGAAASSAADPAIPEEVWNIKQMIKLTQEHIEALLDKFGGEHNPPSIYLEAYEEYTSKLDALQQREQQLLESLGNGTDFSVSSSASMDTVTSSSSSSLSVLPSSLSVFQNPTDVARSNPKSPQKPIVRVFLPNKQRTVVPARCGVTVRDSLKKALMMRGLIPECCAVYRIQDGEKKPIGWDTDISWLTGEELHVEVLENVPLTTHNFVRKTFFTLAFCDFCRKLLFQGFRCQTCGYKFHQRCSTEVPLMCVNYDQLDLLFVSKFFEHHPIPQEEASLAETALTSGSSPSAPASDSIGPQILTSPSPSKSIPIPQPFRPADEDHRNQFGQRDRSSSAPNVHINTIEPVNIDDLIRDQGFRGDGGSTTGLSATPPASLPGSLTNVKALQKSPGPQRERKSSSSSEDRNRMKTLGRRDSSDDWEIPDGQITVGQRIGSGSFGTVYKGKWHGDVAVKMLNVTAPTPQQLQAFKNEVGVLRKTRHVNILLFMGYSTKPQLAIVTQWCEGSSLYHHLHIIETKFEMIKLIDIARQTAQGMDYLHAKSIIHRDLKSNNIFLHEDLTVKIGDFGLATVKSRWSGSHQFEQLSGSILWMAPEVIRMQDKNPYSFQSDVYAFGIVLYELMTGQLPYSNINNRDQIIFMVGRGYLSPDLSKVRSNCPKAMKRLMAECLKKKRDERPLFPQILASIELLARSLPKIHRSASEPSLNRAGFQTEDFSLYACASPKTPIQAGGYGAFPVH
# [7] = biological target: Calcium/calmodulin-dependent protein kinase kinase 1 (Homo sapiens) (UniProt Q8N5S9); assay: CAMKK1 Invitrogen selectivity data (BI); details: Compound concentration 3.0 uM
# [8] = biological target: CDK9/Cyclin K (Homo sapiens) (UniProt P50750+O75909); assay: CDK9_CYCLINK Invitrogen selectivity data (BI); format: protein-complex assay; details: Compound concentration 3.0 uM
# [9] = biological target: T1, Myotonin-protein kinase (Homo sapiens) (UniProt Q09013); assay: DMPK Invitrogen selectivity data (BI); details: Compound concentration 3.0 uM
# T1 sequence (whole entry): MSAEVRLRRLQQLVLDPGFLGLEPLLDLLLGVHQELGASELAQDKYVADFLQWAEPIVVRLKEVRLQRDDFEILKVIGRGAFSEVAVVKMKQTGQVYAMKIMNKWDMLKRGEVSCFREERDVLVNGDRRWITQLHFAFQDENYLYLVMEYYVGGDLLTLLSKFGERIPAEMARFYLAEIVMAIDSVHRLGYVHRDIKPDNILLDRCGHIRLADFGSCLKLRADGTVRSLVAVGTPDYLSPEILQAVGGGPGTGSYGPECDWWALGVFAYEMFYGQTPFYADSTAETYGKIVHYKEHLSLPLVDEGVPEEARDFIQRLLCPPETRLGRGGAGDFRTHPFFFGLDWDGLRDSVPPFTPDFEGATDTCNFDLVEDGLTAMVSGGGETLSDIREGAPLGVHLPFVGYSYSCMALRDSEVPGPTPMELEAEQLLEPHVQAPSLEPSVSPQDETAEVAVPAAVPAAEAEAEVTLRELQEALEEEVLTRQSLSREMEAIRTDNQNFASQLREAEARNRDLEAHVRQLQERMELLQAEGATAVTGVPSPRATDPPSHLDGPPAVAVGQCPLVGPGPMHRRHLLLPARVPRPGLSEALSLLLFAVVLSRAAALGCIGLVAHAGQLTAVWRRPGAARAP
# [10] = biological target: Receptor tyrosine-protein kinase erbB-4 (Homo sapiens) (UniProt Q15303); assay: ERBB4 Invitrogen selectivity data (BI); details: Compound concentration 3.0 uM
# Sequence of Receptor tyrosine-protein kinase erbB-4 (Homo sapiens) (Q15303 whole entry): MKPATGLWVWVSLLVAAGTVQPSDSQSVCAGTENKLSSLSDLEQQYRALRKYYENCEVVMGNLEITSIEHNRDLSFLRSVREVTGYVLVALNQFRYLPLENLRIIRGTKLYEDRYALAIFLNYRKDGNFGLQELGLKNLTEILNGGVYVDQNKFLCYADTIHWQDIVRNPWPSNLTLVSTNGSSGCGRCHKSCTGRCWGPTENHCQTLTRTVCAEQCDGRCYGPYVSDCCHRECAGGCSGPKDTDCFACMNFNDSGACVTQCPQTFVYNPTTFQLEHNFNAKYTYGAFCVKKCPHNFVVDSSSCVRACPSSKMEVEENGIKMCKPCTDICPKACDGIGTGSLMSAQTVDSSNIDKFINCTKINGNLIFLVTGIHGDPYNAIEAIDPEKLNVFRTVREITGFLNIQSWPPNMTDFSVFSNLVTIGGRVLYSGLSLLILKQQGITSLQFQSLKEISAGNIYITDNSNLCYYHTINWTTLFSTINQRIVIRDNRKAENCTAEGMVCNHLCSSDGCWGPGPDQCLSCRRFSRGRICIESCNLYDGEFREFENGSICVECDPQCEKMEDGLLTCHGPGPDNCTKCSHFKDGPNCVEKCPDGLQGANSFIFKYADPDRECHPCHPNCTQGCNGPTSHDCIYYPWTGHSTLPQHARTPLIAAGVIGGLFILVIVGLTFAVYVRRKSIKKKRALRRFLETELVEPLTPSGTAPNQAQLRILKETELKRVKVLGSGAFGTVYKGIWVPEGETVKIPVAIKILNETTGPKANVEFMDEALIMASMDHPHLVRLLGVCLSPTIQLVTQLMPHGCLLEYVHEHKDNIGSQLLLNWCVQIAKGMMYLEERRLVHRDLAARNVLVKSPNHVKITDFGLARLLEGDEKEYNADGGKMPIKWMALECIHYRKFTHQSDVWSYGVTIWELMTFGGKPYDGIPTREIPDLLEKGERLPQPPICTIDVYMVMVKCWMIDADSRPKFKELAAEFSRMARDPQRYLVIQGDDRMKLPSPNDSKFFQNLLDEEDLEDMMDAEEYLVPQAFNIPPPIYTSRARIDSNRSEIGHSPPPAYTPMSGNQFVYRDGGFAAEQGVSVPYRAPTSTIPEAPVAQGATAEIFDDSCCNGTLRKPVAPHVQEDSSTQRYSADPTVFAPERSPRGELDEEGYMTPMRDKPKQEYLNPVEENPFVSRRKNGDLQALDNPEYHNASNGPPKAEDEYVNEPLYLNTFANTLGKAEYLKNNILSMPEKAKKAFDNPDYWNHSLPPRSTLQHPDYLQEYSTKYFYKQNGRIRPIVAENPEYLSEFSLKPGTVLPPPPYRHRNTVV
# [11] = biological target: Tyrosine-protein kinase FRK (Homo sapiens) (UniProt P42685); assay: FRK Invitrogen selectivity data (BI); details: Compound concentration 3.0 uM
# Sequence of Tyrosine-protein kinase FRK (Homo sapiens) (P42685 whole entry): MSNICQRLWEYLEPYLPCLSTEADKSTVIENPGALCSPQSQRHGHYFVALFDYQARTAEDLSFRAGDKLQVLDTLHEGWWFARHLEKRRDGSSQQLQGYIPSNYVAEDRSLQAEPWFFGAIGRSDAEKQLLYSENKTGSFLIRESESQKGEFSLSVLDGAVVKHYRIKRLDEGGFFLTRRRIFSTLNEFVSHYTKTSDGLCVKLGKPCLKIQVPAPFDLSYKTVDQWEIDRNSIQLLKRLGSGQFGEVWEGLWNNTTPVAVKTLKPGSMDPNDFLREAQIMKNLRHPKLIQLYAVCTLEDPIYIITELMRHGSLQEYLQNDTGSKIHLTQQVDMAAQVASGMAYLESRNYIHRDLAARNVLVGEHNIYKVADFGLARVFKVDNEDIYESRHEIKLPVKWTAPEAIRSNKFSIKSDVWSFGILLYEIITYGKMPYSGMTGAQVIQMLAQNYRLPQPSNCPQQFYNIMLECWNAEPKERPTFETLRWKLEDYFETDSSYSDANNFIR
# [12] = biological target: T2, Homeodomain-interacting protein kinase 4 (Homo sapiens) (UniProt Q8NE63); assay: HIPK4 Invitrogen selectivity data (BI); details: Compound concentration 3.0 uM
# T2 sequence (whole entry): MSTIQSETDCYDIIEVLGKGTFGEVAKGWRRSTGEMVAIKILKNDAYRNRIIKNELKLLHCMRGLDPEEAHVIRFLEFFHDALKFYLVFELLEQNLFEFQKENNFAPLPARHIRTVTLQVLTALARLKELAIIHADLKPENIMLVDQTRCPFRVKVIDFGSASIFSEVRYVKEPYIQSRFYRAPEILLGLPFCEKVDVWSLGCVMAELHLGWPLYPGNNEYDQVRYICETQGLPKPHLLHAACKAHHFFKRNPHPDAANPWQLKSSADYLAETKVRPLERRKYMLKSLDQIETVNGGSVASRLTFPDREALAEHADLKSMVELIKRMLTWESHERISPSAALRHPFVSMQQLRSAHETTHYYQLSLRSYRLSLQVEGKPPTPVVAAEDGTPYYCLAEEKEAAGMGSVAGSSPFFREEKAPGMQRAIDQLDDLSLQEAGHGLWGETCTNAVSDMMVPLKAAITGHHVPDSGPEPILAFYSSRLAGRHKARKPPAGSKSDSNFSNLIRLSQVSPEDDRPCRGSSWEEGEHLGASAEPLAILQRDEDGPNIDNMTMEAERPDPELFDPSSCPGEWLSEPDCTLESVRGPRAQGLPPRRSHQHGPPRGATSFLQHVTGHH
# [13] = biological target: LIM domain kinase 1 (Homo sapiens) (UniProt P53667); assay: LIMK1 Invitrogen selectivity data (BI); details: Compound concentration 3.0 uM
# [14] = biological target: Dual specificity mitogen-activated protein kinase kinase 1 (Homo sapiens) (UniProt Q02750); assay: MAP2K1 Invitrogen selectivity data (BI); details: Compound concentration 3.0 uM
# Sequence of Dual specificity mitogen-activated protein kinase kinase 1 (Homo sapiens) (Q02750 whole entry): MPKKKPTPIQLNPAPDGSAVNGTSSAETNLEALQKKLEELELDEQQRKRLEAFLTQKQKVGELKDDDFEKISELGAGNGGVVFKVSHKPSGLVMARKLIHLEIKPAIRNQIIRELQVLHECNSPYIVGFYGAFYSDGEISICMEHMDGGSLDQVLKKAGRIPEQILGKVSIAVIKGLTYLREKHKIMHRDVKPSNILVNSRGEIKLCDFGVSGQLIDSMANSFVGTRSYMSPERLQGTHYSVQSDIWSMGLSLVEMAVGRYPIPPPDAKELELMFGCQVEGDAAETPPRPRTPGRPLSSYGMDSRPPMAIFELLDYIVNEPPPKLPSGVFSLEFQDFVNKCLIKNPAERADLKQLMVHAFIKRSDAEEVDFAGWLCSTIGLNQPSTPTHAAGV
# [15] = biological target: Maternal embryonic leucine zipper kinase (Homo sapiens) (UniProt Q14680); assay: MELK Invitrogen selectivity data (BI); details: Compound concentration 3.0 uM
# Sequence of Maternal embryonic leucine zipper kinase (Homo sapiens) (Q14680 whole entry, looked up): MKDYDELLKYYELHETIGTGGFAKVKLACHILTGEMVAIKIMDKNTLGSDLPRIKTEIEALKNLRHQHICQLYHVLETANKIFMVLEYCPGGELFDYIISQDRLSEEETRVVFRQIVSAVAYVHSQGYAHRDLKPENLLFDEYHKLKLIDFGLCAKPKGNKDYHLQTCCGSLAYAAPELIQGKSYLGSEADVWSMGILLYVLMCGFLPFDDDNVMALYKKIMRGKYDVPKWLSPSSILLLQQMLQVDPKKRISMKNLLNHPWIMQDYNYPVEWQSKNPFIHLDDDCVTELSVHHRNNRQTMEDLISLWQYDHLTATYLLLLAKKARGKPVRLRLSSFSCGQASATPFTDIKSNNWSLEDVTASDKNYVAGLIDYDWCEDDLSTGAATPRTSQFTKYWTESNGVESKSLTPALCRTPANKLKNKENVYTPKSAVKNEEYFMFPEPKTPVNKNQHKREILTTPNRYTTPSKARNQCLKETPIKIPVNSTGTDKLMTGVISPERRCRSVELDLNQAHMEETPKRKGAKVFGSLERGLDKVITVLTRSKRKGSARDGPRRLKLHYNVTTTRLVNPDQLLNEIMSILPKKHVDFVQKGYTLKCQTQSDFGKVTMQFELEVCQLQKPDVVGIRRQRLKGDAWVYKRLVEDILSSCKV
# [16] = biological target: Serine/threonine-protein kinase PLK2 (Homo sapiens) (UniProt Q9NYY3); assay: PLK2 Invitrogen selectivity data (BI); details: Compound concentration 3.0 uM
# [17] = biological target: Proto-oncogene tyrosine-protein kinase Src (Homo sapiens) (UniProt P12931); assay: SRC N1 Invitrogen selectivity data (BI); details: Compound concentration 3.0 uM
# Sequence of Proto-oncogene tyrosine-protein kinase Src (Homo sapiens) (P12931 2-536 limits assumed): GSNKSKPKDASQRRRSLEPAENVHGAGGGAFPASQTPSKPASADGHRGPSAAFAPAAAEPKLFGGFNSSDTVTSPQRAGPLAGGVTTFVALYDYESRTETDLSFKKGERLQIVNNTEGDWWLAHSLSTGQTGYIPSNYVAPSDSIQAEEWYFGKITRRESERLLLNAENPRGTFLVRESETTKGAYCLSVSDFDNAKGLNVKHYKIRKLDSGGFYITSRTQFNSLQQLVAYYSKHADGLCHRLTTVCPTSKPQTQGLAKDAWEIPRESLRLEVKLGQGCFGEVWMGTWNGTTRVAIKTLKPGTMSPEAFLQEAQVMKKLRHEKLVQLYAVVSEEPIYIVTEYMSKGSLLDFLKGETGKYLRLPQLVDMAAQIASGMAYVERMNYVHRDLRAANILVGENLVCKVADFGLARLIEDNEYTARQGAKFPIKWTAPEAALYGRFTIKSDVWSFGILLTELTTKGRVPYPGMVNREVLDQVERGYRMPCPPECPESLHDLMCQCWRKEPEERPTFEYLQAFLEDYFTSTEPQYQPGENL
# [18] = biological target: SRSF protein kinase 2 (Homo sapiens) (UniProt P78362); assay: SRPK2 Invitrogen selectivity data (BI); details: Compound concentration 3.0 uM
# [19] = biological target: T3, Aurora kinase A (Homo sapiens) (UniProt O14965); assay: STK6 Invitrogen selectivity data (BI); details: Compound concentration 3.0 uM
# T3 sequence (whole entry): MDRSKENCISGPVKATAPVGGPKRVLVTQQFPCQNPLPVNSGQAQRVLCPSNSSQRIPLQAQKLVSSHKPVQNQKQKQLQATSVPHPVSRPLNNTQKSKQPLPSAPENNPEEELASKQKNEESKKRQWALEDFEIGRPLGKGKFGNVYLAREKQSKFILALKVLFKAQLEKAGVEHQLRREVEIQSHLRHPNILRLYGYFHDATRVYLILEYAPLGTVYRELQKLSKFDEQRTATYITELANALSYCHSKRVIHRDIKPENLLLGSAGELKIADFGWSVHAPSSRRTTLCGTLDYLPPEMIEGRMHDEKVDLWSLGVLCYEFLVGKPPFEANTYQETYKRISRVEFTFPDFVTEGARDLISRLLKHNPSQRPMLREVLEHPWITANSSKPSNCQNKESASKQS
# [20] = biological target: 3-phosphoinositide-dependent protein kinase 1 (Homo sapiens) (UniProt O15530); assay: PDK1DIRECT Invitrogen selectivity data (BI); details: Compound concentration 3.0 uM
# Sequence of Gastrin/cholecystokinin type B receptor (Homo sapiens) (P32239 whole entry): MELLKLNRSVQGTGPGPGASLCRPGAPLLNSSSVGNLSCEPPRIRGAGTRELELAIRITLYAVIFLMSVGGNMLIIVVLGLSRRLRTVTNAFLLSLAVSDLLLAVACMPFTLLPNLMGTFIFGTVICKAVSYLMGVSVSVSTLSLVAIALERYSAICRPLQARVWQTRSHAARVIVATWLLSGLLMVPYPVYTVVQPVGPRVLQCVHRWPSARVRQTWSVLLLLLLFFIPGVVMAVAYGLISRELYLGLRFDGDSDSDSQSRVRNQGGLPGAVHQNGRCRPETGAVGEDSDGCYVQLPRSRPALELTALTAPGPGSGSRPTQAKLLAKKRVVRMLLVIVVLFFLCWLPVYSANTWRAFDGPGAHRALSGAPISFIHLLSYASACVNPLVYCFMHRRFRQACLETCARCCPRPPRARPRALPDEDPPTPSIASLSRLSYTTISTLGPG
smiles,measurement,setting,value
CN(C)C(=O)Cn1cc(-c2nc([C@@](C)(c3ccc(-c4cnc(N)nc4)cc3)C3CC3)no2)cn1 [BI 665915],residual activity,[1],127%
same,residual activity,[2],119%
same,residual activity,[3],97%
same,residual activity,[4],99%
same,activity at 10 µM,[5],98% (not active)
same,residual activity,[6],95%
same,residual activity,[7],102%
same,residual activity,[8],96%
same,residual activity,[9],100%
same,residual activity,[10],98.5%
same,residual activity,[11],94.5%
same,residual activity,[12],98.5%
same,residual activity,[13],96%
same,residual activity,[14],98%
same,residual activity,[15],94%
same,residual activity,[16],90%
same,residual activity,[17],85%
same,residual activity,[18],98%
same,residual activity,[19],75.5%
same,residual activity,[20],97%
